What was measured:
[1] = Solubility of compound in water; assay type: physicochemical; settings: buffer
THP-1 = assay: Membrane penetration of compound in human THP1 cells assessed as membrane binding; assay type: ADME, cell-based
[2] = Partition coefficient, log P of the compound; assay type: physicochemical; settings: octanol/water

Row | SMILES | solubility [1] | Activity (THP-1) | logP [2]
1 | OCCNc1ccc2nc(-c3ccc(F)cc3)c(-c3ccncc3)n2c1 | Insoluble | Not Active | 1.75
2 | OCCCCNc1ccc2nc(-c3ccc(F)cc3)c(-c3ccncc3)n2c1 | Insoluble | Not Active | 2.3
3 | OCCCCCCNc1ccc2nc(-c3ccc(F)cc3)c(-c3ccncc3)n2c1 | Soluble | Active | 3.2
